Reference: patent US6566359B1, “2,4,6-trimethyl-1,4-dihydro-pyridine-3,5-dicarboxylic acid esters as neuroprotective drugs” (Board of Supervisors of Louisiana State University and …, priority 2002, dated 2003)
Counter-ions that a name gives are not always drawn.

Legend:
[1] = known LD50; cited from earlier work
[2] = Middle cerebral artery occlusion (MCA-O) stroke model, infarct volume by TTC; format: in vivo, C57BL/6 mice
[3] = system: human COX-2 promoter; experiment: PAF-induced COX-2 promoter-luciferase transcription in CV-1 cells; format: cell-based; details: 100 nM compound, 100 nM PAF
Procedure: (§1) To test the ability of LAU-0900 series compounds to inhibit COX-2 expression, a kidney cell line was transiently transfected with the 830-base-pair human COX-2 promoter construct (proximal to the transcription start site) fused to the luciferase gene as a reporter as described below.
(§2) Transfection of CV-1 cells with human COX-2promoterfused with LUC: C V-1 Cells (African green monkey kidney cell line, ATCC # CCL-17) were grown in DMEM-F12 (GIBCO-BRL, Rockville, Md.) supplemented with 10% FBS (fetal bovine serum) in 6-well plates. At 80% confluence, the cells were transfected with 10 μg human COX-2 promoter-LUC construct (containing 830 base pairs of the human COX-2 promoter (donated by Dr. Stephen Prescot, Huntsman Cancer Institute, Salt Lake City, Utah) using a liposomal transfection reagent (DOTAP, Roche Diagnostics, Gmbh, Mannheim, Germany). Promoterless β-galactosidase construct (Promega, Madison, Wis.) was co-transfected to assess transfection efficiency. Three hours after transfection at 37° C., the medium was removed, and the cells were washed with phonsphate-buffered saline solution, pH 7.2 (PBS; Gibco-BRL, Rockville Md. The plates were further incubated at 37° C. in complete medium DMEM-F12 with 10% FBS for about 8-10 hr. Before the addition of the inducers of COX-2, PAF (100 nM) or IL-1β (10 ng/ml), the CV-1-transfected cells were serum-starved for 8 hr at 37° C. After the addition of the inducers, the cells were incubated for 8-10 hr at 37° C. Then the medium was removed, the cells were washed with PBS, harvested, and frozen at −80° C. until used for assays.
(§3) To test the effectiveness of the LAU-0900 series compounds, the transfected cells were treated for 1 hr with 100 nM of various LAU-0900 series compounds before the addition of the inducers (either PAF or IL-1β, and the LAU-0900 compound remained in the medium throughout the incubation period.
(§4) Luciferase assay of transfected CV-1 cells: Frozen cells were homogenized in 300 μl luciferase assay buffer (“ALL”, Analytical Luminescence Laboratory, San Diego, Calif.), and cellular debris was collected as a pellet by centrifugation at 2800×g for 20 min at 4° C. Supernatants (20-30 μl) were normalized to 1 μg/ml of total protein content, and were mixed with 70-80 μl ALL buffer. Reactions were initiated by injection of 100 μl of 1 mM luciferin (Sigma Chemical Co., St. Louis, Mo.). The relative light units were determined by using an ALL luminometer that recorded over 20-second intervals.

[4] = system: human COX-2 promoter; experiment: IL-1β-induced COX-2 promoter-luciferase transcription in CV-1 cells; format: cell-based; details: 100 nM compound, 10 nM IL-1β
Procedure: as §1, §2, §3, §4

[5] = system: c-jun aminoterminal protein kinase (JNK); experiment: PAF-mediated JNK activation in HEK-293 cells, immunocomplex kinase assay; format: cell-based, human; details: PAF 100 nM
Procedure: Experimental Protocol: HEK-293 cells (transformed primary human embryo kidney cells, ATCC# CRL-1573) were cultured to confluency in DMEM-10% FBS high-glucose medium (GIBCO-BRL, Rockville, Md). Cells were cultured in 6-well plates and were treated with PAF (100 nM) for 60 min or interleukin-1β (“IL-1β”; 10 ng/ml) for 30 min, and then frozen for later assays for JNK and ERK as described below. To test the effect of compounds of the LAU-0900 series, HEK-293 cells were treated for 30 min with various concentrations (from 10 nM to 1 μM) of the experimental LAU-0900 series compound before the addition of PAF or IL-1β. […]
To measure the JNK activity, aliquots of 5 μg immunoprecipitates were incubated for 30 min at 30° C. using 10 μg GST-cJUN (Santa Cruz Biotechnology, Santa Cruz, Calif.) as substrate. […] The filter papers were washed twice with 10 mL per square 1% phosphoric acid, followed by one wash with water. ^32P on the filter paper was counted in a scintillation counter to quantify the phosphorylation of substrate proteins.

[6] = target: intracellular type PAF receptor (rat brain microsomal preparations) (Rattus norvegicus, UniProt P46002); experiment: Competition for 3H-PAF binding to rat brain cortex microsomal membranes; details: rat brain microsomal
Procedure: (§5) Binding studies were performed on subcellular fractions of tissues obtained from rat brain cortex, according to procedures described in V. Marcheselli et al., “Distinct platelet-activating factor binding sites in synaptic endings and in intracellular membranes of rat cerebral cortex,” J. biol. Chem., vol. 265, pp. 9140-9145 (1990). Freshly dissected brain tissues were homogenized in ice-cold buffer (50 mM Tris-HCl, 2 mM EGTA, 5 mM PMSF, 250 mM sucrose, 7.4 pH). Subcellular fractions were obtained by differential centrifugation. The microsomal fraction was sedimented after 100,000×g for 1 hour centrifugation. In addition, three cell lines from Chinese hamster ovary (CHO) with varying expression of PAF receptors, CHO-A, CHO-B, and CHO-C cells (from Dr. Takao Shiizu, University of Tokyo, Tokyo, Japan) were cultured to the fourth-passage cells. These cells were cultured to confluence, then detached from their culturing flasks, and pelleted by rapid centrifugation (3,000 rpm, 10 min). Cellular pellets were homogenized in ice-cold buffer as described above. Freshly obtained microsomal fractions or CHO cellular homogenates were utilized for saturation, displacement, and competition studies using ^3H-PAF as the hot ligand, unlabeled-PAF to detect non-specific binding, and a LAU-0900 series compound to displace by competition ^3H-PAF bound to a receptor.

[7] = target: T1, cell-surface-type PAF receptor over-expressed in CHO-B cells (Cavia porcellus, UniProt P21556); experiment: Competition for 3H-PAF binding to CHO-B cell homogenates; details: CHO-B homogenates
T1 construct: expressed in transfected cells; host or cells: Chinese hamster ovary cells: CHO-B (high expression) and CHO-A (mild expression), used as cell homogenates
Procedure: as §5
(§6) See B. Liu et al., “Implication of protein kinase C alpha in PAF-stimulated phospholipase D Activation in Chinese hamster ovary (CHO) cells expressing PAF receptor,” Biochem. Biophys. Res. Commun., vol.214, pp.418-423 (1995). […] Both the constants of inhibition (KI) and 50% of inhibitory activity (IC50) were significant at a low concentration of LAU-0903.

[8] = system: CHO-C cells (do not exp PAF-R); experiment: Competition for 3H-PAF binding to CHO-C cell homogenates; details: CHO-C homogenates
Procedure: as §5, §6

[9] = system: ARPE-19 cells; experiment: Oxidative stress-induced cell death (TNF + H2O2), Hoechst staining; format: cell-based, human; details: TNF 10 ng/ml + H2O2 1.6 μM
Procedure: To test the effectiveness of the LAU-0900 series compounds as inhibitors of oxidative stress-induced cell death, human retinal pigment epithelial cells in culture (ARPE-19 cells, ATCC #CRL-2302) were used. ARPE-19 cells were cultured to confluence in DMEM-10% FBS medium (Gibco-BRL). The cells were then divided into 11 groups. Nine groups were exposed overnight to […] of a test compound selected from LAU-0901, LAU-0903, LAU-0904, LAU-0905, LAU-0906, LAU-0907, LAU-0908, LAU-0909, and LAU-0910. The other two groups were control groups, and were not exposed to any test chemical. In the nine groups and in one control group, oxidative stress was triggered by the addition of a combination of tumor necrosis factor (“TNF”; 10 ng/ml) and hydrogen peroxide (“H2O2”; 1.6 μM). The second control group was not treated with TNF and H2O2.
The amount of Hoeschst staining was least in the group treated with LAU-0901, and most in the group treated with LAU-0910.

[10] = 30 mg/kg 1 hr after reperfusion following 1 hr of MCA-O

T1 sequence (P21556 whole entry): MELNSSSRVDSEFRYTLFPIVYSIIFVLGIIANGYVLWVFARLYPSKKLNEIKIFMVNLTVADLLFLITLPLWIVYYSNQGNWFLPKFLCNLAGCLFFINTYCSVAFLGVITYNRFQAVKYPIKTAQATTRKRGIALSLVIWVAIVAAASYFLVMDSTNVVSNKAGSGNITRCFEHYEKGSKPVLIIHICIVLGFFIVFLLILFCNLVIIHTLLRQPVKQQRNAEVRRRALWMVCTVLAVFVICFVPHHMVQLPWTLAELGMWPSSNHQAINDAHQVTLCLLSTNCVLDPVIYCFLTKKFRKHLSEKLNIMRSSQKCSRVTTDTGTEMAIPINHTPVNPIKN
intracellular type PAF receptor (rat brain microsomal preparations), sequence (P46002 whole entry): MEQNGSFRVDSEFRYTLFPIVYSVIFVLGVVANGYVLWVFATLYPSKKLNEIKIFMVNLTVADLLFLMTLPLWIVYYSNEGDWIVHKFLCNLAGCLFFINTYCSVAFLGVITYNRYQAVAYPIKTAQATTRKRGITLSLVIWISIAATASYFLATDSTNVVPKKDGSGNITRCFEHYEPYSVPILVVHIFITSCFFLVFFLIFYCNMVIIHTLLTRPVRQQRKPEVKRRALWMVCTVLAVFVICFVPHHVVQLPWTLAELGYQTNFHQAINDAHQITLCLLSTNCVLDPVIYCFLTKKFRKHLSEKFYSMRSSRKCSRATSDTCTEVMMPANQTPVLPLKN

CC(=O)Nc1ccc(O)cc1 [acetaminophen]
LD50 [1]: 560 mg/kg

COC(=O)C1=C(C)NC(C)=C(C(=O)OCCCSc2ccc(F)cc2)C1C (centres unmarked) [LAU-0904, 2,4,6-Trimethyl-1,4-dihydro-pyridine-3,5-dicarboxylic acid 5-[3-(4-fluorophenysulfanyl)]-propyl-1-ester 3-methyl ester]
Reduction of infarcted volume [2, 10]: 40%

CCCC(=O)c1ccc(OCCCOC(=O)C2=C(C)NC(C)=C(C(=O)OC)C2C)cc1 (centres unmarked) [LAU-0913, 2,4,6-Trimethyl-1,4-dihydro-pyridine-3,5-dicarboxylic acid 5-[3-(4-butyryl-phenoxy)-propyl]1-ester 3-methyl ester]
Inhibition of COX-2 transcription induced by PAF [3]: inhibited
Inhibition of COX-2 transcription induced by IL-1β [4]: inhibited

CC1=C(C(=O)OCCOc2ccc(Cl)c(Cl)c2)C(C)C(C(=O)OC(CN2CCOCC2)CN2CCOCC2)=C(C)N1 (centres unmarked) [LAU-0901, 2,4,6-Trimethyl-1,4-dihydro-pyridine-3,5-dicarboxylic acid 5-[2-(3,4-dichlorophenoxy)]ethyl ester 3-[1,3-di-(4-morpholinyl)-2-propyl-1-esterdihydrochloride]
Lowest concentration inhibiting PAF-induced JNK [5]: ≤ 10 nM
Reduction of infarcted volume [2, 10]: 40%
Reduction of infarcted volume ([2]; 30 mg/kg at the onset of MCA-O, 1 hr MCA-O, killed 24 hr later): 40%
Reduction of infarcted volume ([2]; 30 mg/kg intraperitoneally 1 h before MCA-O, 1 hr MCA-O, killed 24 hr after): 55%

CCCOc1ccc(SCCCOC(=O)C2=C(C)NC(C)=C(C(=O)OC)C2C)cc1 (centres unmarked) [LAU-0907, 2,4,6-Trimethyl-1,4-dihydro-pyridine-3,5-dicarboxylic acid 5-[3-(4-propoxyphenylsulfanyl)]-propyl-1-ester 3-methyl ester]
Inhibition of COX-2 transcription induced by PAF [3]: inhibited
Inhibition of COX-2 transcription induced by IL-1β [4]: inhibited

CCCCCCCCCCCCCCCCOC[C@H](COP(=O)([O-])OCC[N+](C)(C)C)OC(C)=O [^3H-PAF, ^3H-platelet-activating factor, reference compound]
Kd ([6]; high-affinity binding site (H)): 0.00205 nM
Kd ([6]; low-affinity binding site (L)): 30 nM
Kd [7]: 0.15 nM
Kd 3H-PAF [8]: No binding

CCCCOc1ccc(OCCCOC(=O)C2=C(C)NC(C)=C(C(=O)OC)C2C)cc1 (centres unmarked) [LAU-0910, 2,4,6-Trimethyl-1,4-dihydropyridine-3,5-dicarboxylic acid 3-[3-(4-butoxyphenoxy)propyl]ester 5-methyl ester]
Amount of Hoechst staining (cytoprotection) [9]: most

COC(=O)C1=C(C)NC(C)=C(C(=O)OCCCOc2ccc(/C=C/C(C)=O)cc2)C1C (centres unmarked) [LAU-0908]
Inhibition of COX-2 transcription induced by PAF [3]: inhibited
Inhibition of COX-2 transcription induced by IL-1β [4]: inhibited
